Test results: patent publication US20210045385A1, “PYRIDAZINONE-SUBSTITUTED KETOXIMES AS HERBICIDES” (FMC Corporation, priority 2018, published 2021)

What was measured:
Format in all cases: in vivo
kochia (Bassia scoparia) [1] = experiment: Test C preemergence, visual plant response rating; settings: Test C, 0 is no effect, 100 is complete control
How it was run: (§1)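 Compounds in a non-phytotoxic solvent with surfactant were applied as a directed soil spray preemergence or to 2–10 cm, one- to two-leaf plants postemergence, in loam–sand soil. After about 10 d in a greenhouse, injury was visually rated against untreated controls on a 0–100 scale (100 = complete control).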

[2] = system: barnyardgrass (Echinochloa crus-galli); experiment: Test C preemergence, visual plant response rating; settings: Test C, 0 is no effect, 100 is complete control
How it was run: as §1

[3] = system: Italian ryegrass (Lolium mutiflorum); experiment: Test C preemergence, visual plant response rating; settings: Test C, 0 is no effect, 100 is complete control
How it was run: as §1

[4] = system: pigweed (Amaranthus retroflexus); experiment: Test C preemergence, visual plant response rating; settings: Test C, 0 is no effect, 100 is complete control
How it was run: as §1

[5] = system: ragweed (common ragweed, Ambrosia artemisiifolia); experiment: Test C preemergence, visual plant response rating; settings: Test C, 0 is no effect, 100 is complete control
How it was run: as §1

[6] = system: foxtail, giant (giant foxtail, Setaria faberi); experiment: Test C preemergence, visual plant response rating; settings: Test C, 0 is no effect, 100 is complete control
How it was run: as §1

corn (Zea mays) = experiment: Test C postemergence, visual plant response rating
How it was run: as §1

[7] = system: wheat (Triticum aestivum); experiment: Test C postemergence, visual plant response rating
How it was run: as §1

kochia (Bassia scoparia) [8] = experiment: Test C postemergence, visual plant response rating
How it was run: as §1

[9] = system: barnyardgrass (Echinochloa crus-galli); experiment: Test C postemergence, visual plant response rating
How it was run: as §1

[10] = system: Italian ryegrass (Lolium mutiflorum); experiment: Test C postemergence, visual plant response rating
How it was run: as §1

[11] = system: blackgrass (Alopecurus myosuroides); experiment: Test C postemergence, visual plant response rating
How it was run: as §1

[12] = system: pigweed (Amaranthus retroflexus); experiment: Test C postemergence, visual plant response rating
How it was run: as §1

[13] = system: ragweed (common ragweed, Ambrosia artemisiifolia); experiment: Test C postemergence, visual plant response rating
How it was run: as §1

[14] = system: galium (catchweed bedstraw, Galium aparine); experiment: Test C postemergence, visual plant response rating
How it was run: as §1

[15] = system: foxtail, giant (giant foxtail, Setaria faberi); experiment: Test C postemergence, visual plant response rating
How it was run: as §1

[16] = system: duck salad (Heteranthera limosa); experiment: Test D flooded paddy test, visual plant response rating; settings: 250 g ai/ha, scale 0 to 100 (0 no effect, 100 complete control), 13 to 15 d
How it was run: (§2)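 2-leaf plants, flooded 3 cm, cpd into paddy water; greenhouse 13–15 d; visual rating vs controls, 0 = no effect, 100 = complete control; dash = no result.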

[17] = system: barnyardgrass (Echinochloa crus-galli); experiment: as above; settings: 250 g ai/ha, scale 0 to 100 (0 no effect, 100 complete control), 13 to 15 d
How it was run: as §2

rice (Oryza sativa) = experiment: as above; settings: 250 g ai/ha, scale 0 to 100 (0 no effect, 100 complete control), 13 to 15 d
How it was run: as §2

[18] = system: sedge umbrella (small-flower umbrella sedge, Cyperus difformis); experiment: as above; settings: 250 g ai/ha, scale 0 to 100 (0 no effect, 100 complete control), 13 to 15 d
How it was run: as §2

[19] = Test C, postemergence, 125 g ai/ha

Row | Structure (SMILES) | Kochia plant response rating (0 to 100 scale) (kochia (Bassia scoparia) [1]; 31 g ai/ha) | Kochia plant response rating (0 to 100 scale) (kochia (Bassia scoparia) [1]; 125 g ai/ha) | Barnyardgrass plant response rating (0 to 100 scale) ([2]; 31 g ai/ha) | Barnyardgrass plant response rating (0 to 100 scale) ([2]; 125 g ai/ha) | Ryegrass, Italian plant response rating (0 to 100 scale) ([3]; 31 g ai/ha) | Ryegrass, Italian plant response rating (0 to 100 scale) ([3]; 125 g ai/ha) | Pigweed plant response rating (0 to 100 scale) ([4]; 31 g ai/ha) | Pigweed plant response rating (0 to 100 scale) ([4]; 125 g ai/ha) | Ragweed plant response rating (0 to 100 scale) ([5]; 31 g ai/ha) | Ragweed plant response rating (0 to 100 scale) ([5]; 125 g ai/ha) | Foxtail, Giant plant response rating (0 to 100 scale) ([6]; 31 g ai/ha) | Foxtail, Giant plant response rating (0 to 100 scale) ([6]; 125 g ai/ha) | Corn plant response rating (0 to 100 scale) (corn (Zea mays); Postemergence, 31 g ai/ha) | Corn plant response rating (0 to 100 scale) (corn (Zea mays); [19]) | Wheat plant response rating (0 to 100 scale) ([7]; Postemergence, 31 g ai/ha) | Wheat plant response rating (0 to 100 scale) [7, 19] | Kochia plant response rating (0 to 100 scale) (kochia (Bassia scoparia) [8]; Postemergence, 31 g ai/ha) | Kochia plant response rating (0 to 100 scale) (kochia (Bassia scoparia) [8]; [19]) | Barnyardgrass plant response rating (0 to 100 scale) ([9]; Postemergence, 31 g ai/ha) | Barnyardgrass plant response rating (0 to 100 scale) [9, 19] | other results
1 | Cc1nn(C)c(=O)c(/C(=N/OC(C)C)c2cccc3cc(Cl)ccc23)c1O [Compound 245] | 0 | 0 | 30 | 70 | 0 | 0 | 50 | 100 | 10 | 40 | 60 | 90 | 30 | 30 | 0 | 0 | 0 | 20 | 30 | 50 | Ryegrass, Italian plant response rating (0 to 100 scale) ([10]; Postemergence, 31 g ai/ha): 0; Ryegrass, Italian plant response rating (0 to 100 scale) [10, 19]: 0; Blackgrass plant response rating (0 to 100 scale) ([11]; Postemergence, 31 g ai/ha): 0; Blackgrass plant response rating (0 to 100 scale) [11, 19]: 0; Pigweed plant response rating (0 to 100 scale) ([12]; Postemergence, 31 g ai/ha): 70; Pigweed plant response rating (0 to 100 scale) [12, 19]: 90; Ragweed plant response rating (0 to 100 scale) ([13]; Postemergence, 31 g ai/ha): 20; Ragweed plant response rating (0 to 100 scale) [13, 19]: 70; Galium plant response rating (0 to 100 scale) ([14]; Postemergence, 31 g ai/ha): 70; Galium plant response rating (0 to 100 scale) [14, 19]: 90; Foxtail, Giant plant response rating (0 to 100 scale) ([15]; Postemergence, 31 g ai/ha): 30; Foxtail, Giant plant response rating (0 to 100 scale) [15, 19]: 80; Plant response rating, Ducksalad (Flood) [16]: 30; Plant response rating, Barnyardgrass (Flood) [17]: 15; Plant response rating, Rice (Flood) (rice (Oryza sativa)): 25; Plant response rating, Sedge, Umbrella (Flood) [18]: 50
2 | C#CCO/N=C(\c1ccc(F)c(Cl)c1)c1c(O)c(C)nn(C)c1=O [Compound 230] | 0 | 0 | 0 | 0 | 0 | 10 | 10 | 30 | 0 | 0 | 0 | 30 | 0 | 0 | 0 | 60 | 0 | 0 | 0 | 20 | Ryegrass, Italian plant response rating (0 to 100 scale) ([10]; Postemergence, 31 g ai/ha): 0; Ryegrass, Italian plant response rating (0 to 100 scale) [10, 19]: 40; Blackgrass plant response rating (0 to 100 scale) ([11]; Postemergence, 31 g ai/ha): 0; Blackgrass plant response rating (0 to 100 scale) [11, 19]: 10; Pigweed plant response rating (0 to 100 scale) ([12]; Postemergence, 31 g ai/ha): 0; Pigweed plant response rating (0 to 100 scale) [12, 19]: 20; Ragweed plant response rating (0 to 100 scale) ([13]; Postemergence, 31 g ai/ha): 10; Ragweed plant response rating (0 to 100 scale) [13, 19]: 20; Galium plant response rating (0 to 100 scale) ([14]; Postemergence, 31 g ai/ha): 50; Galium plant response rating (0 to 100 scale) [14, 19]: 70; Foxtail, Giant plant response rating (0 to 100 scale) ([15]; Postemergence, 31 g ai/ha): 10; Foxtail, Giant plant response rating (0 to 100 scale) [15, 19]: 30; Plant response rating, Ducksalad (Flood) [16]: 0; Plant response rating, Barnyardgrass (Flood) [17]: 0; Plant response rating, Rice (Flood) (rice (Oryza sativa)): 0; Plant response rating, Sedge, Umbrella (Flood) [18]: 0
3 | C=CCO/N=C(/c1c(O)c(C)nn(C)c1=O)c1cccc2cc(Cl)ccc12 [Compound 246] | 0 | 0 | 60 | 80 | 30 | 60 | 90 | 100 | 100 | 90 | 80 | 80 | 20 | 10 | 0 | 0 | 0 | 20 | 40 | 70 | Ryegrass, Italian plant response rating (0 to 100 scale) ([10]; Postemergence, 31 g ai/ha): 0; Ryegrass, Italian plant response rating (0 to 100 scale) [10, 19]: 30; Blackgrass plant response rating (0 to 100 scale) ([11]; Postemergence, 31 g ai/ha): 50; Blackgrass plant response rating (0 to 100 scale) [11, 19]: 70; Pigweed plant response rating (0 to 100 scale) ([12]; Postemergence, 31 g ai/ha): 70; Pigweed plant response rating (0 to 100 scale) [12, 19]: 80; Ragweed plant response rating (0 to 100 scale) ([13]; Postemergence, 31 g ai/ha): 80; Ragweed plant response rating (0 to 100 scale) [13, 19]: 100; Galium plant response rating (0 to 100 scale) ([14]; Postemergence, 31 g ai/ha): 80; Galium plant response rating (0 to 100 scale) [14, 19]: 90; Foxtail, Giant plant response rating (0 to 100 scale) ([15]; Postemergence, 31 g ai/ha): 70; Foxtail, Giant plant response rating (0 to 100 scale) [15, 19]: 70; Plant response rating, Ducksalad (Flood) [16]: 95; Plant response rating, Barnyardgrass (Flood) [17]: 90; Plant response rating, Rice (Flood) (rice (Oryza sativa)): 90; Plant response rating, Sedge, Umbrella (Flood) [18]: 100
